Columns and labels:
KB cells = assay: In vitro assay, cell growth inhibition (KB cells); assay type: cell-based; conditions: 72 hours
Method: (§1) KB cells were purchased from Human Science Research Resource Bank (Osaka, Japan). The cells were cultured in Earle's MEM (GIBCO BRL) containing 10% FBS (Bio Whittaker) at 37° C. under 5% CO2. After 24 hours the test compounds were added to the cells at the indicated concentrations. 72 hours later the cells were stained with tripan blue and counted manually. IC50 is calculated as the concentration (aqueous solution) of complex required to inhibit growth of cells by 50%.

HBC-4 = assay: Cell growth inhibition, breast cancer cell line HBC-4; assay type: cell-based; conditions: HBC-4, breast cancer cell line
Method: as §1
(§2) In a similar fashion a representative number of examples of compounds of the invention were tested for their ability to inhibit the growth/proliferation of cell types representing a number of different cancers. The results are provided in Tables 4-13, below, which provide the Inhibition Constants (IC50, μM) for each compound across various cell lines.

BSY-1 = assay: Cell growth inhibition, breast cancer cell line BSY-1; assay type: cell-based; conditions: BSY-1, breast cancer cell line
Method: as §1, §2

HBC-5 = assay: Cell growth inhibition, breast cancer cell line HBC-5; assay type: cell-based; conditions: HBC-5, breast cancer cell line
Method: as §1, §2

MCF-7 = assay: Cell growth inhibition, breast cancer cell line MCF-7; assay type: cell-based; conditions: MCF-7, breast cancer cell line
Method: as §1, §2

MDA-MB-231 = assay: Cell growth inhibition, breast cancer cell line MDA-MB-231; assay type: cell-based; conditions: MDA-MB-231, breast cancer cell line
Method: as §1, §2

U251 = assay: Cell growth inhibition, brain cancer cell line U251; assay type: cell-based
Method: as §1, §2

SF-268 = assay: Cell growth inhibition, brain cancer cell line SF-268; assay type: cell-based; conditions: SF-268, brain cancer cell line
Method: as §1, §2

SF-295 = assay: Cell growth inhibition, brain cancer cell line SF-295; assay type: cell-based; conditions: SF-295, brain cancer cell line
Method: as §1, §2

SF-539 = assay: Cell growth inhibition, brain cancer cell line SF-539; assay type: cell-based; conditions: SF-539, brain cancer cell line
Method: as §1, §2

SNB-75 = assay: Cell growth inhibition, brain cancer cell line SNB-75; assay type: cell-based; conditions: SNB-75, brain cancer cell line
Method: as §1, §2

SNB-78 = assay: Cell growth inhibition, brain cancer cell line SNB-78; assay type: cell-based; conditions: SNB-78, brain cancer cell line
Method: as §1, §2

HCC2998 = assay: Cell growth inhibition, colon cancer cell line HCC2998; assay type: cell-based
Method: as §1, §2

KM-12 = assay: Cell growth inhibition, colon cancer cell line KM-12; assay type: cell-based; conditions: KM-12, colon cancer cell line
Method: as §1, §2

HT-29 = assay: Cell growth inhibition, colon cancer cell line HT-29; assay type: cell-based; conditions: HT-29, colon cancer cell line
Method: as §1, §2

HCT-15 = assay: Cell growth inhibition, colon cancer cell line HCT-15; assay type: cell-based; conditions: HCT-15, colon cancer cell line
Method: as §1, §2

HCT-116 = assay: Cell growth inhibition, colon cancer cell line HCT-116; assay type: cell-based; conditions: HCT-116, colon cancer cell line
Method: as §1, §2

NCI-H23 = assay: Cell growth inhibition, lung cancer cell line NCI-H23; assay type: cell-based
Method: as §1, §2

NCI-H226 = assay: Cell growth inhibition, lung cancer cell line NCI-H226; assay type: cell-based
Method: as §1, §2

NCI-H522 = assay: Cell growth inhibition, lung cancer cell line NCI-H522; assay type: cell-based
Method: as §1, §2

NCI-H460 = assay: Cell growth inhibition, lung cancer cell line NCI-H460; assay type: cell-based
Method: as §1, §2

A549 = assay: Cell growth inhibition, lung cancer cell line A549; assay type: cell-based
Method: as §1, §2

DMS273 = assay: Cell growth inhibition, lung cancer cell line DMS273; assay type: cell-based
Method: as §1, §2

DMS114 = assay: Cell growth inhibition, lung cancer cell line DMS114; assay type: cell-based
Method: as §1, §2

LOX-IMVI = assay: Cell growth inhibition, melanoma cell line LOX-IMVI; assay type: cell-based
Method: as §1, §2

OVCAR-3 = assay: Cell growth inhibition, ovarian cancer cell line OVCAR-3; assay type: cell-based; conditions: OVCAR-3, ovarian cancer cell line
Method: as §1, §2

OVCAR-4 = assay: Cell growth inhibition, ovarian cancer cell line OVCAR-4; assay type: cell-based; conditions: OVCAR-4, ovarian cancer cell line
Method: as §1, §2

OVCAR-5 = assay: Cell growth inhibition, ovarian cancer cell line OVCAR-5; assay type: cell-based; conditions: OVCAR-5, ovarian cancer cell line
Method: as §1, §2

OVCAR-8 = assay: Cell growth inhibition, ovarian cancer cell line OVCAR-8; assay type: cell-based; conditions: OVCAR-8, ovarian cancer cell line
Method: as §1, §2

SK-OV-3 = assay: Cell growth inhibition, ovarian cancer cell line SK-OV-3; assay type: cell-based; conditions: SK-OV-3, ovarian cancer cell line
Method: as §1, §2

RXF-631L = assay: Cell growth inhibition, renal cancer RXF-631L; assay type: cell-based
Method: as §1, §2

ACHN = assay: Cell growth inhibition, renal cancer ACHN; assay type: cell-based
Method: as §1, §2

St-4 = assay: Cell growth inhibition, human stomach cancer St-4; assay type: cell-based; conditions: St-4, human stomach cancer
Method: as §1, §2

MKN1 = assay: Cell growth inhibition, human stomach cancer MKN1; assay type: cell-based
Method: as §1, §2

MKN7 = assay: Cell growth inhibition, human stomach cancer MKN7; assay type: cell-based
Method: as §1, §2

MKN28 = assay: Cell growth inhibition, human stomach cancer MKN28; assay type: cell-based
Method: as §1, §2

MKN45 = assay: Cell growth inhibition, human stomach cancer MKN45; assay type: cell-based
Method: as §1, §2

MKN74 = assay: Cell growth inhibition, human stomach cancer MKN74; assay type: cell-based
Method: as §1, §2

DU-145 = assay: Cell growth inhibition, prostatic cancer DU-145; assay type: cell-based, human; conditions: DU-145, prostatic cancer
Method: as §1, §2

PC-3 = assay: Cell growth inhibition, prostatic cancer PC-3; assay type: cell-based; conditions: PC-3, prostatic cancer
Method: as §1, §2

[1] = test system: all cell types (cancer cell lines of Tables 4-12); assay: Cell growth inhibition, mean over all cell types of the panel; assay type: cell-based; conditions: mean over all cell lines of Tables 4-12
Method: as §1, §2

For [Cl-].[Cl-].c1cc[n+]2c(c1)-c1cccc[n+]1[Pd-2]21[NH2+]CC[NH+]1Cc1c2ccccc2cc2ccccc12 [Example 5, [Pd(bpy)(Aten)]Cl2], the “KB cells remaining/growth in percent (Table 2, untitled)” value (“KB cells remaining/growth in percent” below) (KB cells; 1 μg/ml) was 86.9%, the “KB cells remaining/growth in percent” value (KB cells; 3 μg/mL) was 81.4% and the “KB cells remaining/growth in percent” value (KB cells; 10 μg/mL) was 75.1%. For the same compound, the “KB cells remaining/growth in percent” value (KB cells; 30 μg/mL) was 44.7%, the “KB cells remaining/growth in percent” value (KB cells; 100 μg/mL) was 12.3% and the IC50 (KB cells; concentration to inhibit growth of cells by 50%) was 36 µM. It also gave a log10 IC50 (M) (HBC-4) of -4.91, a log10 IC50 (M) (BSY-1) of -5.34 and a log10 IC50 (M) (HBC-5) of -4.98. The log10 IC50 (M) (MCF-7) was -5.28, the log10 IC50 (M) (MDA-MB-231) was -5.29 and the log10 IC50 (M) (U251) was -5. The log10 IC50 (M) (SF-268) was -5.27, the log10 IC50 (M) (SF-295) was -5.31 and the log10 IC50 (M) (SF-539) was -5.36. It also gave a log10 IC50 (M) (SNB-75) of -5.16, a log10 IC50 (M) (SNB-78) of -4.67 and a log10 IC50 (M) (HCC2998) of -5.54. The log10 IC50 (M) (KM-12) was -5.22, the log10 IC50 (M) (HT-29) was -5.25 and the log10 IC50 (M) (HCT-15) was -5.14. For the same compound, the log10 IC50 (M) (HCT-116) was -5.38, the log10 IC50 (M) (NCI-H23) was -4.88 and the log10 IC50 (M) (NCI-H226) was -5.41. For the same compound, the log10 IC50 (M) (NCI-H522) was -5.22, the log10 IC50 (M) (NCI-H460) was -5.86 and the log10 IC50 (M) (A549) was -4.88. For the same compound, the log10 IC50 (M) (DMS273) was -5.24, the log10 IC50 (M) (DMS114) was -5.28 and the log10 IC50 (M) (LOX-IMVI) was -5.15. For the same compound, the log10 IC50 (M) (OVCAR-3) was -4.95, the log10 IC50 (M) (OVCAR-4) was -5.06 and the log10 IC50 (M) (OVCAR-5) was -5.3. It also gave a log10 IC50 (M) (OVCAR-8) of -5.13, a log10 IC50 (M) (SK-OV-3) of -5.1 and a log10 IC50 (M) (RXF-631L) of -5.43. For the same compound, the log10 IC50 (M) (ACHN) was -5.22, the log10 IC50 (M) (St-4) was -5.12 and the log10 IC50 (M) (MKN1) was -5.28. It also gave a log10 IC50 (M) (MKN7) of -5.04, a log10 IC50 (M) (MKN28) of -4.86 and a log10 IC50 (M) (MKN45) of -5.08. The log10 IC50 (M) (MKN74) was -5.33, the log10 IC50 (M) (DU-145) was -5.1 and the log10 IC50 (M) (PC-3) was -4.9. It also gave a log10 IC50 (M) [1] of -5.18.

Reference: US7342122B2, “Bisphosphonate complexes” (priority 2003, dated 2008)
